Assays:
Experiment in all cases: relative viability (nuclei count vs DMSO), 5 days (fraction); higher = more cells survive
NCI-H2009 = test system: NCI-H2009
Summary of the method: (§1)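 Values are medians from duplicate plates. Each reflects relative viability, defined as the nuclei count of treated wells over that of vehicle wells. Lung cancer cell lines in 1536-well plates were pin-tool dosed one day after seeding with one drug alone or with a fixed anchor-drug dose plus five library-drug doses (not always all listed) in √10 steps, then fixed, stained and imaged at 4× after 5 days.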

PC-3 [JPC-3] = test system: PC-3 [JPC-3]
Summary of the method: as §1

HCC-827 = test system: HCC-827
Summary of the method: as §1

LU99A = test system: LU99A
Summary of the method: as §1

NCI-H2126 = test system: NCI-H2126
Summary of the method: as §1

SK-MES-1 = test system: SK-MES-1
Summary of the method: as §1

BEN = test system: BEN
Summary of the method: as §1

HCC-366 = test system: HCC-366
Summary of the method: as §1

COR-L 105 = test system: COR-L 105
Summary of the method: as §1

HCC-15 = test system: HCC-15
Summary of the method: as §1

NCI-H1993 = test system: NCI-H1993
Summary of the method: as §1

LCLC-97TM1 = test system: LCLC-97TM1
Summary of the method: as §1

NCI-H2087 = test system: NCI-H2087
Summary of the method: as §1

NCI-H727 = test system: NCI-H727
Summary of the method: as §1

LXF-289 = test system: LXF-289
Summary of the method: as §1

HARA = test system: HARA
Summary of the method: as §1

LC-2-ad = test system: LC-2-ad
Summary of the method: as §1

CAL-12T = test system: CAL-12T
Summary of the method: as §1

PC-14 = test system: PC-14
Summary of the method: as §1

HOP-62 = test system: HOP-62
Summary of the method: as §1

COR-L23 = test system: COR-L23
Summary of the method: as §1

HCC-44 = test system: HCC-44
Summary of the method: as §1

Compound `O=C(O)CCCCC(CCSCc1ccccc1)SCc1ccccc1` (stereo not given) [CPI-613] + C[C@]1(O)C[C@@H](c2nc(-c3ccc4ccc(-c5ccccc5)nc4c3)c3c(N)nccn32)C1 [Linsitinib] (partner 1 µM) has a relative viability (NCI-H2009; first compound 5 µM) of 1.17, a relative viability (NCI-H2009; first compound 15.81 µM) of 1.18 and a relative viability (NCI-H2009; first compound 50 µM) of 1.18. For the same compound, the relative viability (NCI-H2009; first compound 158.11 µM) was 0.559, the relative viability (NCI-H2009; first compound 500 µM) was 0.019 and the relative viability (PC-3 [JPC-3]; first compound 5 µM) was 0.953. For the same compound, the relative viability (PC-3 [JPC-3]; first compound 15.81 µM) was 0.854, the relative viability (PC-3 [JPC-3]; first compound 50 µM) was 0.883 and the relative viability (PC-3 [JPC-3]; first compound 158.11 µM) was 0.588. For the same compound, the relative viability (PC-3 [JPC-3]; first compound 500 µM) was 0.64, the relative viability (HCC-827; first compound 5 µM) was 0.967 and the relative viability (HCC-827; first compound 15.81 µM) was 0.892. It also gave a relative viability (HCC-827; first compound 50 µM) of 0.906, a relative viability (HCC-827; first compound 158.11 µM) of 0.613 and a relative viability (HCC-827; first compound 500 µM) of 0.0916. It also gave a relative viability (LU99A; first compound 5 µM) of 0.519, a relative viability (LU99A; first compound 15.81 µM) of 0.461 and a relative viability (LU99A; first compound 50 µM) of 0.561. For the same compound, the relative viability (LU99A; first compound 158.11 µM) was 0.273, the relative viability (LU99A; first compound 500 µM) was 0.0476 and the relative viability (NCI-H2126; first compound 5 µM) was 0.721. The relative viability (NCI-H2126; first compound 15.81 µM) was 0.751, the relative viability (NCI-H2126; first compound 50 µM) was 0.712 and the relative viability (NCI-H2126; first compound 158.11 µM) was 0.534. For the same compound, the relative viability (NCI-H2126; first compound 500 µM) was 0.567, the relative viability (SK-MES-1; first compound 5 µM) was 1.08 and the relative viability (SK-MES-1; first compound 15.81 µM) was 1.04. For the same compound, the relative viability (SK-MES-1; first compound 50 µM) was 1.03, the relative viability (SK-MES-1; first compound 158.11 µM) was 0.863 and the relative viability (SK-MES-1; first compound 500 µM) was 0.988. It also gave a relative viability (BEN; first compound 5 µM) of 0.881, a relative viability (BEN; first compound 15.81 µM) of 0.784 and a relative viability (BEN; first compound 50 µM) of 0.941. It also gave a relative viability (BEN; first compound 158.11 µM) of 0.747, a relative viability (BEN; first compound 500 µM) of 0.72 and a relative viability (HCC-366; first compound 5 µM) of 0.601. The relative viability (HCC-366; first compound 15.81 µM) was 0.637, the relative viability (HCC-366; first compound 50 µM) was 0.597 and the relative viability (HCC-366; first compound 158.11 µM) was 0.587. The relative viability (HCC-366; first compound 500 µM) was 0.0054, the relative viability (COR-L 105; first compound 5 µM) was 1.15 and the relative viability (COR-L 105; first compound 15.81 µM) was 0.77. It also gave a relative viability (COR-L 105; first compound 50 µM) of 0.902, a relative viability (COR-L 105; first compound 158.11 µM) of 0.664 and a relative viability (COR-L 105; first compound 500 µM) of 0.181. For the same compound, the relative viability (HCC-15; first compound 5 µM) was 0.878, the relative viability (HCC-15; first compound 15.81 µM) was 0.845 and the relative viability (HCC-15; first compound 50 µM) was 0.794. The relative viability (HCC-15; first compound 158.11 µM) was 0.467, the relative viability (HCC-15; first compound 500 µM) was 0.359 and the relative viability (NCI-H1993; first compound 5 µM) was 0.71. It also gave a relative viability (NCI-H1993; first compound 15.81 µM) of 0.671, a relative viability (NCI-H1993; first compound 50 µM) of 0.781 and a relative viability (NCI-H1993; first compound 158.11 µM) of 0.61. It also gave a relative viability (NCI-H1993; first compound 500 µM) of 0.432, a relative viability (LCLC-97TM1; first compound 5 µM) of 0.186 and a relative viability (LCLC-97TM1; first compound 15.81 µM) of 0.167. It also gave a relative viability (LCLC-97TM1; first compound 50 µM) of 0.199, a relative viability (LCLC-97TM1; first compound 158.11 µM) of 0.16 and a relative viability (LCLC-97TM1; first compound 500 µM) of 0.0574. For the same compound, the relative viability (NCI-H2087; first compound 5 µM) was 1.01, the relative viability (NCI-H2087; first compound 15.81 µM) was 0.758 and the relative viability (NCI-H2087; first compound 50 µM) was 0.868. It also gave a relative viability (NCI-H2087; first compound 158.11 µM) of 0.178, a relative viability (NCI-H2087; first compound 500 µM) of 0.0125 and a relative viability (NCI-H727; first compound 5 µM) of 0.251. It also gave a relative viability (NCI-H727; first compound 15.81 µM) of 0.343, a relative viability (NCI-H727; first compound 50 µM) of 0.2 and a relative viability (NCI-H727; first compound 158.11 µM) of 0.216. It also gave a relative viability (NCI-H727; first compound 500 µM) of 0.0496, a relative viability (LXF-289; first compound 5 µM) of 0.997 and a relative viability (LXF-289; first compound 15.81 µM) of 0.969. For the same compound, the relative viability (LXF-289; first compound 50 µM) was 0.921, the relative viability (LXF-289; first compound 158.11 µM) was 0.269 and the relative viability (LXF-289; first compound 500 µM) was 0.0192. For the same compound, the relative viability (HARA; first compound 5 µM) was 0.906, the relative viability (HARA; first compound 15.81 µM) was 0.864 and the relative viability (HARA; first compound 50 µM) was 0.991. It also gave a relative viability (HARA; first compound 158.11 µM) of 0.44, a relative viability (HARA; first compound 500 µM) of 0.0277 and a relative viability (LC-2-ad; first compound 5 µM) of 0.805. The relative viability (LC-2-ad; first compound 15.81 µM) was 0.847, the relative viability (LC-2-ad; first compound 50 µM) was 0.738 and the relative viability (LC-2-ad; first compound 158.11 µM) was 0.251. It also gave a relative viability (LC-2-ad; first compound 500 µM) of 0.0081, a relative viability (CAL-12T; first compound 5 µM) of 0.865 and a relative viability (CAL-12T; first compound 15.81 µM) of 0.634. It also gave a relative viability (CAL-12T; first compound 50 µM) of 0.561, a relative viability (CAL-12T; first compound 158.11 µM) of 0.642 and a relative viability (CAL-12T; first compound 500 µM) of 0.62. The relative viability (PC-14; first compound 5 µM) was 0.941, the relative viability (PC-14; first compound 15.81 µM) was 0.874 and the relative viability (PC-14; first compound 50 µM) was 0.928. It also gave a relative viability (PC-14; first compound 158.11 µM) of 0.857, a relative viability (PC-14; first compound 500 µM) of 1.02 and a relative viability (HOP-62; first compound 5 µM) of 1.05. For the same compound, the relative viability (HOP-62; first compound 15.81 µM) was 1.05, the relative viability (HOP-62; first compound 50 µM) was 0.863 and the relative viability (HOP-62; first compound 158.11 µM) was 0.611. The relative viability (HOP-62; first compound 500 µM) was 0.0257, the relative viability (COR-L23; first compound 5 µM) was 0.851 and the relative viability (COR-L23; first compound 15.81 µM) was 0.918. The relative viability (COR-L23; first compound 50 µM) was 0.779, the relative viability (COR-L23; first compound 158.11 µM) was 0.334 and the relative viability (COR-L23; first compound 500 µM) was 0.0236. For the same compound, the relative viability (HCC-44; first compound 5 µM) was 0.625, the relative viability (HCC-44; first compound 15.81 µM) was 0.666 and the relative viability (HCC-44; first compound 50 µM) was 0.717. For the same compound, the relative viability (HCC-44; first compound 158.11 µM) was 0.393 and the relative viability (HCC-44; first compound 500 µM) was 0.0377.

— the supplement of paper PMC10307832
